Assay results taken from patent publication US9643933B2, “Compounds useful as antibiotic tolerance inhibitors” (priority 2013, dated 2017).
Where a name gives a salt, the structure may show the parent alone.

Experiments:
PQS = PQS Inhibition Assay (24 Hour Incubation); format: cell-based, P. aeruginosa PA14 wild-type strain; conditions: Pseudomonas aeruginosa, PA14, 24 h, read-out: PQS (24 hr) IC50 (μM)
Description: Test compounds are dissolved in DMSO at 10 mM and stored at −20° C. until needed. Seven test concentrations from 0.0032 micromolar to 31.6 micromolar are used for each compound. P. aeruginosa PA14 wild-type strain is inoculated into 5 mL LB broth in a 15-mL sterile glass culture tube and incubated overnight at 37° C. under shaking (˜240 rpm). The overnight culture is then diluted in LB Broth to give an OD600=0.04 (T0 culture). Colony Forming Units (CFU)/mL of the overnight culture and T0 culture are determined by a series of 1:10 serial dilutions in sterile saline. 4×20 μL of each dilution is seeded on LB agar plates and incubated at 35±2° C. for 20 hours. CFU/mL is determined from the dilution that gives 2 to 50 colonies/20 μL.
For concentration response curve (CRC) experiments, internal standard (2-((5-nitro-1H-indol-2-yl)thio)-N-(4-phenoxyphenyl)acetamide)) and test compounds are serially diluted in DMSO to give 200 times of each final concentration (0.5% DMSO final), and 1 μL/well is dispensed in duplicate into 2-mL wells of a 96 well deep well plate. 200 μL/well of T0 culture is added to each internal standard/test compound well used to determine PQS control level. Wells containing only LB broth (blank wells) are also included in the plate.
The plate is sealed and incubated at 37° C. for 24 hours under shaking (˜700 rpm) using a microtiter shaker. At the end of the incubation period, 150 μL/well of the deep well plate culture are transferred in a new non-sterile plate, and 150 μL/well of methanol containing tetra-deuterated PQS (D4-PQS) and 2% acetic acid are added to each well. The plate is sealed, shaken at high speed for 5 minutes and centrifuged at 4,000 g for 40 minutes at room temperature. 100 μL/well of the supernatant is then transferred to glass vials (vials crimp 0.2 mL) and kept at 4° C. until LC-MS/MS analysis.
PQSs quantification is carried out by analyzing samples in discrete batches together with spiked standards and blank samples.
Calibration curves are constructed from PQS standards, and respective deuterated PQS is used as an Internal Standards (IS) to calculate the concentration of analytes in the sample and improve the precision of the assay. The back-calculated concentrations of the calibration standards from the calibration curve shall be within ±20% of the nominal values, the range of the analytical method is determined, and the lower and upper limit of quantification specified.
Liquid chromatography separations are performed using an Agilent HP1100 system (Agilent Technologies) coupled with a CTC PAL Autosampler (CTC Analytics AG). Chromatographic retention is obtained using a monolithic column (Chromolith® RP-18, 50×4.6 mm). The solvent system consists of water containing 0.1% (v/v) formic acid (A) and acetonitrile containing 0.1% (v/v) formic acid (B). The gradient elution profile is chosen as follows: 0 min: 70% A (1500 μL/min), 0.3 min: 70% A (1500 μL/min), 1.3 min: 5% A (2500 μL/min), 1.6 min: 5% A (2500 μL/min).
The MS/MS analysis is performed with an API4000 series mass spectrometer (AB Sciex™) operating in Multiple Reaction Monitoring (MRM) mode and equipped with a TIS ion source. The specific ions monitored are PQS (m/z 260→m/z 175) and D4-PQS (m/z 264→m/z 179). The computer systems used in this study to acquire and quantify data may be an Analyst™ v1.5.
PQS in the presence of different concentrations of test compound are expressed as percentage of inhibition of the basal level in control samples. Curve fitting and IC50 estimations are carried out using a four parameter logistic model using GraphPad Prism v.5 program.

Pyocyanin = Pyocyanin Inhibition Assay; format: cell-based, P. aeruginosa, strain PA14; conditions: Pseudomonas aeruginosa, PA14, 24 h, read-out: Pyocyanin Inhibition No. IC50 (μM)
Description: Test compounds are dissolved in DMSO at 10 mM and stored at −20° C. until needed. Seven test concentrations from 0.0032 micromolar to 31.6 micromolar are used for each compound.
P. aeruginosa, strain PA14, is inoculated into 5 mL of LB broth in a 15-mL sterile glass culture tube and incubated overnight at 37° C. under shaking (˜240 rpm). The overnight culture is then diluted in LB Broth to give an OD600=0.04 (T0 culture). Colony Forming Units (CFU)/mL of the overnight culture and T0 culture are determined by a series of 1:10 serial dilutions in sterile saline. 4×20 μL of each dilution is seeded on LB agar plates and incubated at 35±2° C. for 20 hours. CFU/mL is determined from the dilution that gives 2 to 50 colonies/20 μL.
For concentration response curve (CRC) experiments, internal standard, 2-((5-nitro-1H-indol-2-yl)thio)-N-(4-phenoxyphenyl)acetamide, a compound previously identified as an MvfR inhibitor (see Example 1 of US 2014-0066454 (WO 2012/116010)), and test compounds are serially diluted in DMSO to 200 times each final concentration (0.5% DMSO fmal), and 1 μL/well is dispensed in duplicate into 2 mL wells of a 96-well deep well plate. 200 μL/well of T0 culture are added to each internal standard/test compound well. Wells containing only T0 culture (200 200 μL/well) are used to determine pyocyanin control level and wells containing only LB broth (blank wells) are also included in the plate.
The plate is sealed and incubated at 37° C. under shaking (˜700 rpm) using a microtiter shaker for 24 hours. At the end of the incubation period, the plate is centrifuged at 4,000 g for 40 minutes at room temperature, 100 μL/well of the supernatant is transferred to a 96-microtiter PS flat-bottom plate, and absorbance at 690 nm is determined using SPECTROstar® Nano microplate reader. Pyocyanin concentration (M) is determined using the equation C=A690/(ε×d), where ε is the Pyocyanin extinction coefficient, at A690 nm ε is 4,310 M^−1 cm^−1 and d is the experimentally derived pathlength. The level of pyocyanin in the presence of test compound is expressed as percentage of inhibition with respect to the control. Curve fitting and IC50 determination were carried out using a four-parameter logistic model using GraphPad Prism v.5.

SMILES | IC50 (PQS) | IC50 (Pyocyanin)
COc1ccc(NC(=O)CSc2nc3ccc(Cl)cc3[nH]2)cc1Cl [Compound 143] | 5 to 10 µM | 1 to 10 µM
O=C(CSc1nc2cc(Cl)ccc2[nH]1)Nc1ccc(Oc2cnccn2)cc1 [Compound 78, 2-((5-chloro-1H-benzo[d]imidazol-2-yl)thio)-N-(4-(pyrazin-2-yloxy)phenyl)acetamide] | < 1 µM | < 0.1 µM
Cc1cc(F)ccc1NC(=O)CNc1ccc(C#N)cc1 [Compound 154] | > 10 µM | > 10 µM
Cc1cncc(Oc2ccc(NC(=O)CSc3nc4cc(Cl)ccc4[nH]3)cc2)c1 [Compound 81, 2-(5-Chloro-1H-benzo[d]imidazol-2-ylthio)-N-(4-(5-methylpyridin-3-yloxy)phenyl)acetamide] | < 1 µM | < 0.1 µM
Cc1cc(NCC(=O)Nc2ccc(C#N)c(Cl)c2)ccc1Br [Compound 153] | > 10 µM | > 10 µM
N#Cc1ccc(NCC(=O)Nc2ccc(F)c(F)c2)nc1 [Compound 157] | > 10 µM | > 10 µM
N#Cc1ccc(NC(=O)CNc2ccc(Cl)cc2)cc1 [Compound 156] | > 10 µM | > 10 µM
O=C(CSc1nc2ccc(Cl)cc2[nH]1)Nc1ccc(F)cc1F [Compound 144] | > 10 µM | 1 to 10 µM
Cc1ccc(Oc2ccc(NC(=O)CSc3nc4cc(Cl)ccc4[nH]3)cc2)cn1 [Compound 80, 2-((5-chloro-1H-benzo[d]imidazol-2-yl)thio)-N-(4-((6-methylpyridin-3-yl)oxy)phenyl)acetamide] | < 1 µM | < 0.1 µM
N#Cc1ccc(NC(=O)CCc2nc3ccc([N+](=O)[O-])cc3[nH]2)cc1 [Compound 148, N-(4-cyanophenyl)-3-(6-nitro-1H-benzo[d]imidazol-2-yl)propanamide] | 5 to 10 µM | 1 to 10 µM
N#Cc1ccc(NC(=O)CSc2nc3ccc(-c4ncccn4)cc3[nH]2)cc1 [Compound 113] | > 10 µM | > 10 µM
O=C(COc1nc2ccc([N+](=O)[O-])cc2[nH]1)Nc1ccc(Cl)cc1 [Compound 150, N-(4-chlorophenyl)-2-((6-nitro-1H-benzo[d]imidazol-2-yl)oxy)acetamide] | > 10 µM | 1 to 10 µM
N#Cc1ccc(NC(=O)CSc2cc3cc(Cl)ccc3[nH]2)cc1 [Compound 90, 2-((5-Chloro-1H-indol-2-yl)thio)-N-(4-cyanophenyl)acetamide] | > 10 µM | 1 to 10 µM
N#Cc1cccc(NC(=O)CSc2nc3cc(Cl)ccc3[nH]2)c1 [Compound 138] | > 10 µM | > 10 µM
CN(C)C(=O)Oc1ccc2[nH]c(SCC(=O)Nc3ccc(Cl)cc3)nc2c1 [Compound 136] | > 10 µM | > 10 µM
O=C(CCc1nc2ccc([N+](=O)[O-])cc2[nH]1)Nc1ccc(Cl)cc1 [Compound 134, N-(4-chlorophenyl)-3-(6-nitro-1H-benzo[d]imidazol-2-yl)propanamide hydrochloride] | 1 to 5 µM | 1 to 10 µM

SMILES | IC50 (PQS) | IC50 (Pyocyanin)
N#Cc1ccc(NC(=O)COc2nc3ccc([N+](=O)[O-])cc3[nH]2)cc1 [Compound 149, N-(4-cyanophenyl)-2-((6-nitro-1H-benzo[d]imidazol-2-yl)oxy)acetamide] | > 10 µM | 1 to 10 µM
COC(=O)c1ccc2[nH]c(SCC(=O)Nc3ccc(C#N)cc3)nc2c1 [Compound 112] | > 10 µM | > 10 µM
O=C(CSc1nc2cc(OC(F)F)ccc2[nH]1)Nc1ccc(Cl)cc1 [Compound 95] | > 10 µM | 1 to 10 µM
N#Cc1ccc(NC(=O)CSc2nc3cc(C(=O)O)ccc3[nH]2)cc1 [Compound 106] | > 10 µM | > 10 µM
O=C(CSc1nc2cc(Cl)ccc2[nH]1)Nc1ccc2c(c1)OCO2 [Compound 139] | > 10 µM | 1 to 10 µM
O=C(CNc1nc2ccc(Cl)cc2s1)Nc1ccc(Oc2cccnc2)cc1 [Compound 73, 2-((6-chlorobenzo[d]thiazol-2-yl)amino)-N-(4-(pyridin-3-yloxy)phenyl)acetamide] | > 10 µM | > 10 µM
Cn1c(SCC(=O)Nc2ccc(Oc3ccccc3)cc2)nc2cc([N+](=O)[O-])ccc21 [Compound 23] | > 10 µM | 1 to 10 µM
O=C(CNc1nc2ccccc2[nH]1)Nc1ccc(Oc2cccnc2)cc1 [Compound 151] | > 10 µM | > 10 µM
N#Cc1ccc(NC(=O)CSc2nc3ccc(-n4cccn4)cc3[nH]2)cc1 [Compound 117] | > 10 µM | 1 to 10 µM
O=C(CCc1nc2ccc(Cl)cc2o1)Nc1ccc(Oc2cccnc2)cc1 [Compound 92, 3-(6-chlorobenzo[d]oxazol-2-yl)-N-(4-(pyridin-3-yloxy)phenyl)propanamide] | > 10 µM | > 10 µM
O=C(CSc1nc2cc(Cl)ccc2[nH]1)Nc1ccc(Oc2ccncc2)cc1 [Compound 76, 2-((5-chloro-1H-benzo[d]imidazol-2-yl)thio)-N-(4-(pyridin-4-yloxy)phenyl)acetamide] | < 1 µM | < 0.1 µM
O=C(NCCSc1nc2cc(Cl)ccc2[nH]1)c1ccc(Oc2cccnc2)cc1 [Compound 87, N-(2-((5-chloro-1H-benzo[d]imidazol-2-yl)thio)ethyl)-4-(pyridin-3-yloxy)benzamide] | > 10 µM | > 10 µM
O=S(=O)(CSc1nc2cc(Cl)ccc2[nH]1)Nc1ccc(Oc2cccnc2)cc1 [Compound 91, 1-((5-chloro-1H-benzo[d]imidazol-2-yl)thio)-N-(4-(pyridin-3-yloxy)phenyl)methanesulfonamide] | > 10 µM | > 10 µM
CN(C)C(=O)Oc1ccc2[nH]c(SCC(=O)Nc3ccc(C#N)cc3)nc2c1 [Compound 135] | > 10 µM | > 10 µM
COc1ccc(NC(=O)CSc2nc3c(Cl)cc(Cl)cc3[nH]2)cc1 [Compound 141] | > 10 µM | 1 to 10 µM
O=C(CNc1cccc(F)c1)Nc1cccc(Oc2ccccc2)c1 [Compound 158] | > 10 µM | > 10 µM
